The results in this text go back to US20080113983A1, “Nicotinic Acetylcholine Receptor Ligands” (AstraZeneca AB, priority 2004, published 2008).

The target in this assay is T1, α4 nAChR receptor (Rattus norvegicus, UniProt P09483+P12390).
T1 construct: from tissue; host or cells: rat cortical brain membranes
As to the kind of experiment: Radioligand ([125I]-IPH) binding to rat cortical membranes. The settings on record: saturation curves fitted to a one site model. The procedure: Assay for affinity at an α4 nAChR receptor by measuring the binding of [^3H]-(-)-nicotine binding to rat cortical membranes.
A procedure modified from Martino-Barrows and Kellar (Mol Pharm (1987) 31:169-174) may be used. Rat cortical brain membranes are prepared as described in the [^125I]α-BTX binding assay, except that a 500-12000×g membrane fraction is prepared. Membranes (30-150 μg) are incubated with 30-100 pM of the epibatidine analog [^125I]-IPH ((+/−)-exo-2-(2-iodo-5-pyridyl)-7-azabicyclo-[2,2,1]heptane) together with test compound in HB for 1 hour at room temperature with gentle shaking. Membranes may be recovered as described for the [^125I]α-BTX binding assay. Non-specific binding may be determined by 100 μM carbachol. Typically specific binding is about 84%.
Analysis of Binding Data Obtained in α7 nAChR or α4 nAChR receptor assays
IC50 values and pseudo Hill coefficients (nH) may be calculated using the non-linear curve fitting program ALLFIT (DeLean A, Munson P J and Rodbard D (1977) Am. J. Physiol., 235:E97-E102). […] Ki values may be estimated using the general Cheng-Prusoff equation:
Ki=[IC50 ]/((2+([ligand]/KD)^n)^1/n−1)
where a value of n=1 is used whenever nH<1.5 and a value of n=2 is used when nH>1.5. To account for variability, assays may be performed in triplicate and variability will typically be ±5%. Ki values may be determined using six to 11 drug concentrations.

The structures appear in SMILES notation.

T1 sequence (P12390 25-500): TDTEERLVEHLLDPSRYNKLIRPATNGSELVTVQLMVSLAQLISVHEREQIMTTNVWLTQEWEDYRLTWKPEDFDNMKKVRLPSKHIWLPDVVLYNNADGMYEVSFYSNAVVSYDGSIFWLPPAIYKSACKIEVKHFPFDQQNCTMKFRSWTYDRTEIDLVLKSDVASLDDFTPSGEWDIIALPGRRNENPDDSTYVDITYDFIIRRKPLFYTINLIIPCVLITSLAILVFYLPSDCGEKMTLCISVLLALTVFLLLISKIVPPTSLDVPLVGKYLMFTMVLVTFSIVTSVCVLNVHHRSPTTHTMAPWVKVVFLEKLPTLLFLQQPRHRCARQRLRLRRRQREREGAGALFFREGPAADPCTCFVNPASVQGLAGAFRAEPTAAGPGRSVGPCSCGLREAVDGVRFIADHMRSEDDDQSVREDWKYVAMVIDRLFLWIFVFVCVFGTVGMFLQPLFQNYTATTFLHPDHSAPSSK
T1 sequence (P09483 31-630): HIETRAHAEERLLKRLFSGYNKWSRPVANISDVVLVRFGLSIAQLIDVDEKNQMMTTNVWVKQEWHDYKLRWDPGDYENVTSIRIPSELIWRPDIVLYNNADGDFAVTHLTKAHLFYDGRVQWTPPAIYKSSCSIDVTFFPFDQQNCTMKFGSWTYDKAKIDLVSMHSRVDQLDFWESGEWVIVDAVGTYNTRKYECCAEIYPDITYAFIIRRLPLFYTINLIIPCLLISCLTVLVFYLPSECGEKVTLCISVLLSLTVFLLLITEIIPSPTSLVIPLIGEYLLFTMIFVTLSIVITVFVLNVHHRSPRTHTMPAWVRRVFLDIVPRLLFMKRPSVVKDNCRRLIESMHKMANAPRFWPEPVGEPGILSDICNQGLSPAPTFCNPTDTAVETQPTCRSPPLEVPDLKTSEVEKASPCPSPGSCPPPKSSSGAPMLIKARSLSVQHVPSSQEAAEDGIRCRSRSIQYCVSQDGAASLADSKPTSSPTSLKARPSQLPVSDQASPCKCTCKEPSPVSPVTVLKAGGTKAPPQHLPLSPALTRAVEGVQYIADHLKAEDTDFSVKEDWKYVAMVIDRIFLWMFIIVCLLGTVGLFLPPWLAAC

By Kd is commonly meant a measure of binding affinity in units of concentration. Take `Ic1ccc(C2CC3CCC2N3)cn1` (racemic) [[^125I]-IPH, (+/−)-exo-2-(2-iodo-5-pyridyl)-7-azabicyclo-[2,2,1]heptane]: the Kd is 0.064 nM.
